Reference: patent publication US20020028938A1, “Prostaglandin endoperoxide H synthase biosynthesis inhibitors” (priority 1997, published 2002)

Columns and labels:
[1] = target: T1, Cox-1 in Monocyte U937 cells (Homo sapiens, UniProt P23219); experiment: Monocyte U937 cell Cox-1 assay; type: cell-based; conditions: read-out: U937 IC50 (parenthetical value)
T1 construct: endogenous in cells; host or cells: U937 monocyte cells (ATCC)
Experimental: Human amnionic WISH cells were grown to 80% confluence in 48 well plates. Following removal of the growth medium and two washings with Geys Balanced Salt Solutn, 5 ng IL-1β /ml (UBI, Lake Placid, N.Y.) was added to the cells with or without test compound in DMSO (0.01% v/v) in Neuman-Tytell Serumless Medium (GIBCO, Grand Island, N.Y.). Following an 18 hour incubation to allow for the maximal induction of PGHS-2, the conditioned medium was removed and assayed for PGE2 content by EIA analysis as described above.
Monocyte U937 (ATCC, Rockville, Md.) cells were grown in a similar fashion to the WISH cells. After incubation, the conditioned medium was removed and assayed for […] by EIA analysis as described above.

[2] = test system: air pouch prostaglandin biosynthesis (Cox-2); experiment: Carrageenan induced air pouch prostaglandin biosynthesis model (CAP); type: in vivo, rat; conditions: 4 h; 3 mpk, rat; read-out: CAP % Inhib. @ 3 mpk
How it was run: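 Male Sprague Dawley rats with dorsal air pouches (20 mL air day 0, 10 mL day 3) received 0.2% lambda carrageenan in saline into the pouch on day 7. Compounds dosed at 0.1 to 10 mg/kg 30 min before carrageenan; pouch lavaged 4 h later, prostaglandins measured by EIA. Percent inhibition versus control mean; ED50 by linear regression.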

[3] = test system: prostaglandin biosynthesis in vivo (pleural lavage eicosanoids); experiment: Rat carrageenan pleural inflammation (CIP) model
How it was run: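 Male adrenalectomized Sprague-Dawley rats were dosed orally with compound suspended in PEG 400, 30 minutes before intrapleural 2% lambda carrageenan. Pleural lavage collected 4 hours later went into methanol (66% final), and eicosanoids were measured by EIA. Inhibition relative to control mean; ED50 by linear regression.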

T1 sequence (P23219 24-599): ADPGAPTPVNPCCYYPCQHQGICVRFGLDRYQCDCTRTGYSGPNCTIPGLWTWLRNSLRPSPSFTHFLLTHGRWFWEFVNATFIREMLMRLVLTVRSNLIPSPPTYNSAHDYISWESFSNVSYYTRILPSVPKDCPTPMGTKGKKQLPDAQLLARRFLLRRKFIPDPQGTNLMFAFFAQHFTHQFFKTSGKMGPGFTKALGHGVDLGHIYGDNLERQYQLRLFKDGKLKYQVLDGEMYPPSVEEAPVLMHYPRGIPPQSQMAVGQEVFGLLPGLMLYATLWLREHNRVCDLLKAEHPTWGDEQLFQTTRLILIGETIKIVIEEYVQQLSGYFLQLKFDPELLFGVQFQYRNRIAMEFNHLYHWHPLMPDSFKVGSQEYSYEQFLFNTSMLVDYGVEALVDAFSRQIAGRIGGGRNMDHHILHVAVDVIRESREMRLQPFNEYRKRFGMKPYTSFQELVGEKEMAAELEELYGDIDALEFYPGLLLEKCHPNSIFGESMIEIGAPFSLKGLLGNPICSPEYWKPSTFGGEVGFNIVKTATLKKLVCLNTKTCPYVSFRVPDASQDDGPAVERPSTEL

- IC50 [1]: 3.8 µM
Structure (SMILES): NS(=O)(=O)c1ccc(-c2cnn(-c3ccc(F)cc3)c(=O)c2-c2ccc(F)cc2)cc1 [Example 89]
- inhibition in vivo at 3 mg/kg [2]: 94%
- inhibition in vivo at 10 mg/kg ([3]; 4 h, 10 mpk oral, read-out: CIP % Inhib. @ 10 mpk): 68.3%
- ED50 ([3]; oral): 3.4 mg/kg
